In brackets after ≈: the same amount, converted by molar mass. Activity calls are given as the source filed them. The rule behind the calls is not given here.
Key:
Assay type in all cases: functional
[1] = system: Escherichia coli; assay: Antibacterial activity against Escherichia coli ATCC 25922 after 2 days by microdilution broth method; conditions: ATCC 25922, 48 h
[2] = system: Staphylococcus aureus; assay: Antibacterial activity against Staphylococcus aureus ATCC 25923 after 2 days by microdilution broth method; conditions: ATCC 25923, 48 h
[3] = system: Rattus norvegicus; assay: Antiinflammatory activity in Wistar albino rat assessed as inhibition of carrageenan-induced paw edema at 40 mg/kg, po administered 1 hr prior to carrageenan challenge measured 4 hrs post carrageenan challenge relative to control
[4] = system: Rattus norvegicus; assay: Antiinflammatory activity in Wistar albino rat assessed as inhibition of carrageenan-induced paw edema at 40 mg/kg, po administered 1 hr prior to carrageenan challenge measured 2 hrs post carrageenan challenge relative to control
[5] = system: Aspergillus niger; assay: Antifungal activity against Aspergillus niger ATCC 9029 after 2 days by microdilution broth method; conditions: ATCC 9029, 48 h
[6] = system: Rattus norvegicus; assay: Antiinflammatory activity in Wistar albino rat assessed as inhibition of carrageenan-induced paw edema at 40 mg/kg, po administered 1 hr prior to carrageenan challenge measured 1 hr post carrageenan challenge relative to control
[7] = system: Candida albicans; assay: Antifungal activity against Candida albicans ATCC 10231 after 2 days by microdilution broth method; conditions: ATCC 10231, 48 h

`O=C(O)c1cn(C2CC2)c2cc(N3CCNCC3)c(F)cc2c1=O` [CIPROFLOXACIN] showed an MIC [1] of 2.35 µM (≈ 0.779 µg/mL) and an MIC [2] of 4.7 µM (≈ 1.56 µg/mL).

Compound `Cc1nc(Cc2ccc(Cl)cc2)sc1C1SCC(=O)N1c1ccc(Cl)cc1` (configuration not stated) has an inhibition in vivo at 40 mg/kg [3] of 53.9%, an MIC [1] of 57.4 µM (≈ 25 µg/mL) and an inhibition in vivo at 40 mg/kg [4] of 40.1%. For the same compound, the MIC [2] was 28.7 µM (≈ 12.5 µg/mL), the MIC [5] was 28.7 µM (≈ 12.5 µg/mL) and the inhibition in vivo at 40 mg/kg [6] was 48.9%. It also gave an MIC [7] of 28.7 µM (≈ 12.5 µg/mL).

For `Cc1nc(-c2ccc(Cl)cc2)sc1C1SCC(=O)N1c1ccc(F)cc1` (configuration not stated), the inhibition in vivo at 40 mg/kg [3] was 67.6%, the MIC [1] was 15.4 µM (≈ 6.25 µg/mL) and the inhibition in vivo at 40 mg/kg [4] was 63.9%. The MIC [2] was 30.9 µM (≈ 12.5 µg/mL), the MIC [5] was 61.7 µM (≈ 25 µg/mL) and the inhibition in vivo at 40 mg/kg [6] was 63.4%. It also gave an MIC [7] of 30.9 µM (≈ 12.5 µg/mL).

With `OC(Cn1cncn1)(Cn1cncn1)c1ccc(F)cc1F` [FLUCONAZOLE] the MIC [5] was 5.09 µM (≈ 1.56 µg/mL) and the MIC [7] was 2.55 µM (≈ 0.781 µg/mL).

For `COc1ccc(N2C(=O)CSC2c2sc(-c3ccccc3)nc2C)cc1` (configuration not stated), the inhibition in vivo at 40 mg/kg [3] was 67.1%, the MIC [1] was 65.5 µM (≈ 25.1 µg/mL) and the inhibition in vivo at 40 mg/kg [4] was 48.1%. It also gave an MIC [2] of 65.5 µM (≈ 25.1 µg/mL), an MIC [5] of 32.8 µM (≈ 12.5 µg/mL) and an inhibition in vivo at 40 mg/kg [6] of 52.3%. The MIC [7] was 32.8 µM (≈ 12.5 µg/mL).

Compound `Cc1nc(-c2ccc(Cl)cc2)sc1C1SCC(=O)N1c1ccccc1` (configuration not stated) has an MIC [1] of 32.3 µM (≈ 12.5 µg/mL), an MIC [2] of 32.3 µM (≈ 12.5 µg/mL) and an MIC [5] of 129 µM (≈ 50 µg/mL). The MIC [7] was 129 µM (≈ 50 µg/mL).

`COc1ccc(N2C(=O)CSC2c2sc(Cc3ccc(Cl)cc3)nc2C)cc1` (configuration not stated) gave an inhibition in vivo at 40 mg/kg [3] of 55.9%, an MIC [1] of 58 µM (≈ 25 µg/mL) and an inhibition in vivo at 40 mg/kg [4] of 28.6%. For the same compound, the MIC [2] was 58 µM (≈ 25 µg/mL), the MIC [5] was 14.5 µM (≈ 6.25 µg/mL) and the inhibition in vivo at 40 mg/kg [6] was 20.9%. The MIC [7] was 14.5 µM (≈ 6.25 µg/mL).

For `COc1ccc2c(c1)c(CC(=O)O)c(C)n2C(=O)c1ccc(Cl)cc1` [INDOMETHACIN], the inhibition in vivo at 40 mg/kg [3] was 87.3%, the inhibition in vivo at 40 mg/kg [4] was 78.3% and the inhibition in vivo at 40 mg/kg [6] was 70.2%.

For `Cc1nc(Cc2ccc(Cl)cc2)sc1C1SCC(=O)N1c1ccc(F)c(Cl)c1` (configuration not stated), the inhibition in vivo at 40 mg/kg [3] was 68.9%, the MIC [1] was 55.1 µM (≈ 25 µg/mL) and the inhibition in vivo at 40 mg/kg [4] was 45.1%. The MIC [2] was 55.1 µM (≈ 25 µg/mL), the MIC [5] was 27.6 µM (≈ 12.5 µg/mL) and the inhibition in vivo at 40 mg/kg [6] was 40.7%. For the same compound, the MIC [7] was 27.6 µM (≈ 12.5 µg/mL).

Work on `Cc1ccc(N2C(=O)CSC2c2sc(Cc3ccc(Cl)cc3)nc2C)cc1` (configuration not stated) yielded an inhibition in vivo at 40 mg/kg [3] of 81.3%, an MIC [1] of 60.2 µM (≈ 25 µg/mL) and an inhibition in vivo at 40 mg/kg [4] of 61.4%. The MIC [2] was 60.2 µM (≈ 25 µg/mL), the MIC [5] was 15.1 µM (≈ 6.25 µg/mL) and the inhibition in vivo at 40 mg/kg [6] was 59.9%. For the same compound, the MIC [7] was 30.1 µM (≈ 12.5 µg/mL).

`Cc1nc(-c2ccc(Cl)cc2)sc1C1SCC(=O)N1c1ccc(Cl)cc1` (configuration not stated) showed an inhibition in vivo at 40 mg/kg [3] of 43.1%, an MIC [1] of 29.7 µM (≈ 12.5 µg/mL) and an inhibition in vivo at 40 mg/kg [4] of 45.7%. It also gave an MIC [2] of 59.3 µM (≈ 25 µg/mL), an MIC [5] of 119 µM (≈ 50 µg/mL) and an inhibition in vivo at 40 mg/kg [6] of 69.3%. The MIC [7] was 119 µM (≈ 50 µg/mL).

`Cc1nc(-c2ccccc2)sc1C1SCC(=O)N1c1ccc(F)c(Cl)c1` (configuration not stated) was tested, and the inhibition in vivo at 40 mg/kg [3] was 28.6%, the MIC [1] was 61.7 µM (≈ 25 µg/mL) and the inhibition in vivo at 40 mg/kg [4] was 20.9%. For the same compound, the MIC [2] was 61.7 µM (≈ 25 µg/mL), the MIC [5] was 123 µM (≈ 50 µg/mL) and the inhibition in vivo at 40 mg/kg [6] was 55.9%. It also gave an MIC [7] of 123 µM (≈ 50 µg/mL).

In the case of `Cc1nc(-c2ccccc2)sc1C1SCC(=O)N1c1ccccc1` (configuration not stated), the inhibition in vivo at 40 mg/kg [3] is reported as 63.7%, the MIC [1] is reported as 70.9 µM (≈ 25 µg/mL) and the inhibition in vivo at 40 mg/kg [4] is reported as 50.6%. It also gave an MIC [2] of 70.9 µM (≈ 25 µg/mL), an MIC [5] of 142 µM (≈ 50 µg/mL) and an inhibition in vivo at 40 mg/kg [6] of 44.4%. It also gave an MIC [7] of 142 µM (≈ 50 µg/mL).

With `Cc1nc(-c2ccccc2)sc1C1SCC(=O)N1c1ccc(Cl)cc1` (configuration not stated) the inhibition in vivo at 40 mg/kg [3] was 80.8%, the MIC [1] was 64.6 µM (≈ 25 µg/mL) and the inhibition in vivo at 40 mg/kg [4] was 59.1%. It also gave an MIC [2] of 129 µM (≈ 50 µg/mL), an MIC [5] of 129 µM (≈ 50 µg/mL) and an inhibition in vivo at 40 mg/kg [6] of 54.8%. For the same compound, the MIC [7] was 129 µM (≈ 50 µg/mL).

With `Cc1nc(-c2ccccc2)sc1C1SCC(=O)N1c1ccc(F)cc1` (configuration not stated) the inhibition in vivo at 40 mg/kg [3] was 85.3%, the MIC [1] was 33.7 µM (≈ 12.5 µg/mL) and the inhibition in vivo at 40 mg/kg [4] was 63.4%. The MIC [2] was 67.5 µM (≈ 25 µg/mL), the MIC [5] was 33.7 µM (≈ 12.5 µg/mL) and the inhibition in vivo at 40 mg/kg [6] was 63.9%. The MIC [7] was 33.7 µM (≈ 12.5 µg/mL).

`Cc1nc(Cc2ccc(Cl)cc2)sc1C1SCC(=O)N1c1ccc(F)cc1` (configuration not stated) gave an MIC [1] of 59.7 µM (≈ 25 µg/mL), an MIC [2] of 59.7 µM (≈ 25 µg/mL) and an MIC [5] of 14.9 µM (≈ 6.25 µg/mL). It also gave an MIC [7] of 14.9 µM (≈ 6.25 µg/mL).

With `Cc1nc(Cc2ccc(Cl)cc2)sc1C1SCC(=O)N1c1ccccc1` (configuration not stated) the inhibition [3] was “inactive”, the MIC [1] was 67.8 µM (≈ 27.2 µg/mL) and the inhibition [4] was “inactive”. For the same compound, the MIC [2] was 67.8 µM (≈ 27.2 µg/mL), the MIC [5] was 33.9 µM (≈ 13.6 µg/mL) and the inhibition [6] was “inactive”. For the same compound, the MIC [7] was 33.9 µM (≈ 13.6 µg/mL).

For `Cc1ccc(N2C(=O)CSC2c2sc(-c3ccccc3)nc2C)cc1` (configuration not stated), the inhibition in vivo at 40 mg/kg [3] was 80.6%, the MIC [1] was 60.4 µM (≈ 22.1 µg/mL) and the inhibition in vivo at 40 mg/kg [4] was 60.1%. For the same compound, the MIC [2] was 121 µM (≈ 44.3 µg/mL), the MIC [5] was 30.2 µM (≈ 11.1 µg/mL) and the inhibition in vivo at 40 mg/kg [6] was 58.1%. For the same compound, the MIC [7] was 30.2 µM (≈ 11.1 µg/mL).

For `Cc1ccc(N2C(=O)CSC2c2sc(-c3ccc(Cl)cc3)nc2C)cc1` (configuration not stated), the inhibition in vivo at 40 mg/kg [3] was 63.9%, the MIC [1] was 31.2 µM (≈ 12.5 µg/mL) and the inhibition in vivo at 40 mg/kg [4] was 37.6%. It also gave an MIC [2] of 31.2 µM (≈ 12.5 µg/mL), an MIC [5] of 31.2 µM (≈ 12.5 µg/mL) and an inhibition in vivo at 40 mg/kg [6] of 38.3%. It also gave an MIC [7] of 15.6 µM (≈ 6.25 µg/mL).

`COc1ccc(N2C(=O)CSC2c2sc(-c3ccc(Cl)cc3)nc2C)cc1` (configuration not stated) showed an inhibition in vivo at 40 mg/kg [3] of 59.1%, an MIC [1] of 30 µM (≈ 12.5 µg/mL) and an inhibition in vivo at 40 mg/kg [4] of 80.7%. The MIC [2] was 30 µM (≈ 12.5 µg/mL), the MIC [5] was 30 µM (≈ 12.5 µg/mL) and the inhibition in vivo at 40 mg/kg [6] was 54%. It also gave an MIC [7] of 30 µM (≈ 12.5 µg/mL).

For `Cc1nc(-c2ccc(Cl)cc2)sc1C1SCC(=O)N1c1ccc(F)c(Cl)c1` (configuration not stated), the inhibition in vivo at 40 mg/kg [3] was 65.1%, the MIC [1] was 56.9 µM (≈ 25 µg/mL) and the inhibition in vivo at 40 mg/kg [4] was 45.1%. The MIC [2] was 56.9 µM (≈ 25 µg/mL), the MIC [5] was 114 µM (≈ 50 µg/mL) and the inhibition in vivo at 40 mg/kg [6] was 53.4%. For the same compound, the MIC [7] was 114 µM (≈ 50 µg/mL).
